Results published in publication PMC3158827 (ACS chemical biology, 2011).
Non-standard residues stand in square brackets, D forms with d. No end group written: not given here.

Assays:
thrombin [1] = conditions: cited from earlier work
thrombin [2] = conditions: cited from earlier work; remark: listed apart in the source
chymotrypsin = assay: chymotrypsin; conditions: 37°C, up to 120 minutes
plasma kallikrein = conditions: cited from earlier work
trypsin = conditions: cited from earlier work

bivalirudin
Ki (thrombin [1]): 2 nM
association rate constant (thrombin [2]): 4e+08 M⁻¹ s⁻¹
dissociation rate (thrombin [2]): 0.8 s⁻¹

GGSCIDGGRLMCGGS
cleaved bond (chymotrypsin): methionine-C

Ecallantide
Ki (plasma kallikrein): 0.044 nM

[dF]PRP
thrombin inhibition (thrombin [1]; concentrations up to 10 µM): does not significantly inhibit thrombin

ω-conotoxin MVIIa
degradation by trypsin (trypsin): degraded
